In patent publication US5053404A, “Novel steroid derivatives, pharmaceutical compositions containing them and process for preparing same” (Richter Gedeon Vegyeszeti Gyar R. T., priority 1989, dated 1991):

Columns and labels:
local granuloma sac = test: Local granuloma sac model, exudate (antiinflammatory effect); format: in vivo, rat; conditions: for Exudate / Inhibition (decrease in volume of exudate): 10th day; for Inhibition (decrease in volume of exudate): vs control; for Relative activity: relative to budesonide = 100, on 2.00 μg/sac line
Method: (§1) 3) The local granuloma sac model
This method was used to investigate the antiexudative action of the topically administered glucocorticoids.
Groups consisting of 10 female RG Hann Wistar rats each weighing 130 to 150 g were used. […] After 5 days the content of the sac was removed by suction and once 3 doses each of the glucocorticoids to be tested or budesonide respectively, in a volume of 0.5 ml suspension in Tween 80 were administered by an injection syringe. On the 10th day following the start of the experiment the animals were sacrificed and the exudate liquid of the sac (expressed as ml) was measured. The percentage of the antiinflammatory effect was calculated based on the decrease in the volume of exudate related to that of the control.

[1] = tested on: croton oil-induced contact dermatitis; test: Croton oil-induced contact dermatitis model, ear weight; format: in vivo, rat; conditions: for Ear weight / Inhibition (of ear weight increase): topical on ear, 6 hours; for Inhibition (of ear weight increase): vs croton oil control; for Relative activity: relative to budesonide = 100, on 10 μg/ml line
Method: (§2) 2) The croton oil-induced contact dermatitis model
(§3) Infantile female rats weighing 45 to 55 g were used. Animals had previously been selected for this test, the ear weight of which increased at least by 100% under effect of a treatment with 2% croton oil.
(§4) The test compounds were dissolved in a 2% croton oil mixture in various concentrations and then applied onto the ears of the animals. The control group was treated only with the croton oil inducing inflammation. Six hours after treatment the ears of the animals were cut off and weighed. For evaluation, the diminution of the ear weight increase was expressed as "percentage of inhibition", in comparison to the control treated with croton oil only. In the 48th hour the thymi of the animals were excised and the harmful systemic side effect of the test compounds was evaluated by comparing their thymus weight to that of the control animals.

thymus [2] = test: Thymus involution (systemic side effect) in local granuloma sac model; format: in vivo, rat; conditions: 10th day
Source text: (§5) Two principal (essential) demands are set up against topically used steroid antiinflammatory drugs: a) they should be as active as possible in various animal experiments used for investigating the antiinflammatory action; and b) they should induce the lowest harmful systemic side effect. This latter effect can be well characterized by the thymus weight-decreasing action (involution). The possibly lowest toxicity (i.e. the possibly highest LD50 value) is an essential demand for any active agent (drug) used in therapy.
as §1
Groups consisting of 10 female RG Hann Wistar rats each weighing 130 to 150 g were used. After shaving the back of the animals 25 ml of air were injected beneath the back skin and 1 ml of 2% croton oil inducing inflammation was introduced to the air sac. After 5 days the content of the sac was removed by suction and once 3 doses each of the glucocorticoids to be tested or budesonide respectively, in a volume of 0.5 ml suspension in Tween 80 were administered by an injection syringe. On the 10th day following the start of the experiment the animals were sacrificed and the exudate liquid of the sac (expressed as ml) was measured. The percentage of the antiinflammatory effect was calculated based on the decrease in the volume of exudate related to that of the control.
Then, the thymi of the animals were excised and the harmful systemic side effect of the test compounds was calculated as a percentage based on the comparison of the thymus weight of animals treated with the test compounds to that of the untreated control group.

experimental asthma = test: Experimental asthma model (ovalbumin); format: in vivo, guinea-pig; conditions: 50 mg/kg i.p. 20 hours before i.v. ovalbumin provocation; for Dyspnoea (percentage occurrence): control 33; for Survival: control 66
Source text: 4) The experimental asthma model
This test was used to investigate the antiasthmatic effect of the test compounds.
It is known that by ovalbumin (OA) treatment an experimental asthma can be induced on guinea-pigs which is accompanied by dyspnoea and causes the death of the animals in severe cases. This test is useful to detect an eventual antiasthmatic effect of the test compounds.
Guinea-pigs of both sexes weighing 300 to 400 g each were used. The experimental animals were sensitized by i.p. ovalbumin (10/ μg of OA+100 mg of aluminum hydroxide/animal) and after 30 days they were provoked by the intravenous (i.v.) administration of 100 mg/kg of OA. Both the test compounds and budesonide used as reference substance were given 50 mg/kg i.p. dose 20 hours before the provocation. The percentage occurrence of dyspnoea and the survival were observed.

[3] = Comparative acute toxicity (LD50), rats; conditions: rat, in vivo, 2-week observation
Method: (§6) 1) Comparative study on the acute toxicity
(§7) Animal groups consisting of 10 CFLP mice or RG Hann Wistar rats each of both sexes were used. The doses causing the death of 50% of the animals (LD50 values) within a 2-week observation period following subcutaneous (s.c.) or oral (p.o.) administration were determined.

[4] = Comparative acute toxicity (LD50), mice; conditions: mouse, in vivo, 2-week observation
Method: as §6, §7

thymus [5] = test: Thymus involution (systemic side effect) in croton oil-induced contact dermatitis model; format: in vivo, rat; conditions: 48th hour
Source text: as §5, §2, §3, §4

Structure (SMILES) | Exudate (local granuloma sac; 0.22 μg/sac) | Inhibition (decrease in volume of exudate) (local granuloma sac; 0.22 μg/sac) | Exudate (local granuloma sac; 2.00 μg/sac) | Inhibition (decrease in volume of exudate) (local granuloma sac; 2.00 μg/sac) | Exudate (local granuloma sac; 18.00 μg/sac) | Inhibition (decrease in volume of exudate) (local granuloma sac; 18.00 μg/sac) | Relative activity (local granuloma sac) | Ear weight ([1]; 1 μg/ml in 2% croton oil) | Inhibition (of ear weight increase) ([1]; 1 μg/ml) | Ear weight ([1]; 10 μg/ml in 2% croton oil) | Inhibition (of ear weight increase) ([1]; 10 μg/ml) | Ear weight ([1]; 100 μg/ml in 2% croton oil) | Inhibition (of ear weight increase) ([1]; 100 μg/ml) | Relative activity [1] | Thymus involution (thymus [2]; 0.22 μg/sac) | Thymus involution (thymus [2]; 2.00 μg/sac) | Thymus involution (thymus [2]; 18.00 μg/sac) | Dyspnoea (percentage occurrence) (experimental asthma) | Survival (experimental asthma) | LD50 at 336 h ([3]; po, female) | other results
CCCC1O[C@@H]2C[C@H]3[C@@H]4CCC5=CC(=O)C=C[C@]5(C)[C@H]4[C@@H](O)C[C@]3(C)[C@]2(C(=O)CO)O1 (stereo partly drawn) [Budesonide, (22RS)-11β,21-dihydroxy-16α,17-butylidenedioxypregna-1,4-dien-3,20-dione, reference compound] | 6.38 ± 0.4 mL | 49.89% | 4.00 ± 0.3 mL | 68.58% | 1.84 ± 0.5 mL | 85.55% | 100 | 144.71 ± 2.0 mg | 19.43% | 127.78 ± 2.0 mg | 39.53% | 117.07 ± 2.7 mg | 52.24% | 100 | 0% | 0% | 24.43% | 20% | 60% | 2110 mg/kg | LD50 at 336 h ([3]; po, male): 3400 mg/kg; LD50 at 336 h ([3]; sc, female): 71.5 mg/kg; LD50 at 336 h ([3]; sc, male): 59.4 mg/kg; LD50 at 336 h ([4]; po, female): 1360 mg/kg; LD50 at 336 h ([4]; po, male): 1080 mg/kg; LD50 at 336 h ([4]; sc, female): 109 mg/kg; LD50 at 336 h ([4]; sc, male): 131 mg/kg; Thymus involution (thymus [5]; 1 μg/ml topical on ear): 9.2%; Thymus involution (thymus [5]; 10 μg/ml topical on ear): 3.9%; Thymus involution (thymus [5]; 100 μg/ml topical on ear): 26.1%
CCCC1O[C@@H]2C=C3[C@@H]4CCC5=CC(=O)C=C[C@]5(C)[C@H]4[C@@H](O)C[C@]3(C)[C@]2(C(=O)CO)O1 (stereo partly drawn) [Ex. No. 2, 11β,16α,17,21-tetrahydroxypregna-1,4,14-trien-3,20-dion-16,17-cyclic butyraldehyde acetal] | 7.47 ± 0.5 mL | 41.32% | 5.10 ± 0.4 mL | 59.94% | 1.36 ± 0.2 mL | 89.32% | 62 | 144.60 ± 2.8 mg | 19.56% | 131.10 ± 2.7 mg | 35.59% | 118.20 ± 2.2 mg | 50.90% | 78 | 0% | 0% | 0% | 14% | 43% | > 3000 mg/kg | LD50 at 336 h ([3]; po, male): > 4000 mg/kg; LD50 at 336 h ([3]; sc, female): 843 mg/kg; LD50 at 336 h ([3]; sc, male): 1210 mg/kg; LD50 at 336 h ([4]; po, female): > 4000 mg/kg; LD50 at 336 h ([4]; po, male): > 4000 mg/kg; LD50 at 336 h ([4]; sc, female): 823 mg/kg; LD50 at 336 h ([4]; sc, male): 585 mg/kg; Thymus involution (thymus [5]; 1 μg/ml topical on ear): 0%; Thymus involution (thymus [5]; 10 μg/ml topical on ear): 0%; Thymus involution (thymus [5]; 100 μg/ml topical on ear): 9.8%
CC(C)C1O[C@@H]2C=C3[C@@H]4CCC5=CC(=O)C=C[C@]5(C)[C@H]4[C@@H](O)C[C@]3(C)[C@]2(C(=O)CO)O1 (stereo partly drawn) [Ex. No. 6, 11β,16α,17,21-tetrahydroxypregna-1,4,14-trien-3,20-dion-16,17-cyclic isobutyraldehyde acetal] | 6.52 ± 0.6 mL | 48.79% | 5.08 ± 0.4 mL | 60.10% | 1.69 ± 0.3 mL | 86.73% | 71 | 144.40 ± 3.5 mg | 19.80% | 126.90 ± 2.7 mg | 40.57% | 115.10 ± 2.6 mg | 54.57% | 118 | 4.98% | 4.98% | 6.22% | 0% | 100% | > 3000 mg/kg | LD50 at 336 h ([3]; po, male): > 4000 mg/kg; LD50 at 336 h ([3]; sc, female): 164 mg/kg; LD50 at 336 h ([3]; sc, male): 162 mg/kg; LD50 at 336 h ([4]; po, female): 2790 mg/kg; LD50 at 336 h ([4]; po, male): 2930 mg/kg; LD50 at 336 h ([4]; sc, female): 634 mg/kg; LD50 at 336 h ([4]; sc, male): 333 mg/kg; Thymus involution (thymus [5]; 1 μg/ml topical on ear): 0%; Thymus involution (thymus [5]; 10 μg/ml topical on ear): 1.7%; Thymus involution (thymus [5]; 100 μg/ml topical on ear): 0%
